B1: CD40L: recombinant CD40L, a B-cell co-stimulatory molecule (protein, UniProt P29965 113-261, looked up)
CD40 ligand, soluble form: MQKGDQNPQIAAHVISEASSKTTSVLQWAEKGYYTMSNNLVTLENGKQLTVKRQGLYYIYAQVTFCSNREASSQAPFIASLCLKSPGRFERILLRAANTHSSAKPCGQQSIHLGGVFELQPGASVFVNVTDPSQVSHGTGFTSFGLLKL

Experiments:
KARPAS-422 = assay: Combination study with tazemetostat (synergy by IC50 shifts or Calcusyn); assay type: cell-based; settings: KARPAS-422 (EZH2 mutant)
Experimental: (§1) Synergy was assessed by IC50 shifts or Calcusyn. [table]

SU-DHL5 = assay: as above; assay type: cell-based; settings: SU-DHL-5 (EZH2 wt)
Experimental: as §1

TMD8 = assay: as above; assay type: cell-based; settings: TMD8 (ABC)
Experimental: as §1

Oral bioavailability = settings: in vivo
[1] = system: OCI-LY19 cell line xenograft; assay: Cell line xenograft model, tumor growth; assay type: in vivo
Text: (§2) FIG. 1. A) 14 evaluable NHL patients treated (V. Ribrag ASH 2015): 13 WT+1 mutant by cobas® EZH2 Mutation Test (in development, Roche Molecular Systems, Inc.)*Cheson Criteria. B) EZH2 mutant cell lines are more sensitive to TAZ in vitro. […] Cell of origin of cell lines determined by RNAseq analysis (Scott et al. Blood 2014).

[2] = system: SU-DHL-5 cell line xenograft; assay: Cell line xenograft model, tumor growth; assay type: in vivo; settings: SU-DHL-5 xenograft model
Text: as §2

[3] = system: PRDM1 (BLIMP1) in GCB lines; assay: PRDM1 (BLIMP1) expression by qPCR or western blot; assay type: cell-based; settings: all GCB lines; 7 days with 1 μM TAZ vs DMSO
Experimental: (§3) FIG. 4. Cells were treated for 7 days with 1 μM TAZ or DMSO.

PRDM1 (BLIMP1) in TMD8 = assay: PRDM1 (BLIMP1) expression by qPCR or western blot; assay type: cell-based; settings: ABC cell line TMD8; 7 days with 1 μM TAZ vs DMSO
Experimental: as §3

Cells = assay: Apoptosis, single agents or combination, 10 days (FIG. 6B); assay type: cell-based
Experimental: (§4) FIG. 6. A) Cells were treated for 7 days with single agents or in combination. […] This effect is not seen in the ABC cell line, TMD8. B) Cells were treated for 10 days with single agents (100 ng/mL CD40L) or in combination.

IκBα in SU-DHL-5 cells = assay: IκBα degradation in response to CD40L (FIG. 7B); assay type: cell-based; settings: 4-day treatment, CD40L 500 ng/mL
DLBCL cell lines = assay: RNAseq GSEA for plasma and memory cell gene sets; assay type: cell-based; settings: 1 μM TAZ for 4 days; KARPAS-422, SU-DHL-6, Farage, SU-DHL-5, TMD8, Toledo
Experimental: FIG. 3. […] RNAseq data from KARPAS-422 (EZH2 mutant GCB), SU-DHL-6 (EZH2 mutant GCB) Farage (EZH2 wt GCB), SU-DHL-5 (EZH2 wt GCB), TMD8 (EZH2 wt ABC) and Toledo (EZH2 wt ABC) treated with 1 μM TAZ for 4 days was analyzed using GSEA (Broad Institute) for the presence of plasma and memory cell gene sets.

B-cell lymphomas = settings: phase I; patients with B-cell lymphomas; cited from earlier work
GCB lines = assay: Combination of CD40L with TAZ (FIG. 5); assay type: cell-based
[4] = system: H3K27 trimethylation in KARPAS-422; assay: H3K27 trimethylation inhibition (FIG. 6C); assay type: cell-based; settings: KARPAS-422, mutant EZH2 cell line
Experimental: as §4

[5] = system: PRDM1 in SU-DHL-5 (wt EZH2); assay: PRDM1 expression after co-treatment with TAZ and CD40L (FIG. 7A); assay type: cell-based; settings: 14-day co-treatment

Row | Molecule | Combination effect with TAZ (FIG. 5) (KARPAS-422) | Combination effect with TAZ (FIG. 5) (SU-DHL5) | Combination effect with TAZ (FIG. 5) (TMD8) | oral bioavailability (Oral bioavailability) | tumor growth in response to TAZ treatment [1] | tumor growth in response to TAZ treatment [2] | PRDM1 (BLIMP1) expression [3] | PRDM1 (BLIMP1) expression (PRDM1 (BLIMP1) in TMD8) | apoptosis, single agent compared to DMSO (Cells) | IκBα degradation in response to CD40L (IκBα in SU-DHL-5 cells) | plasma cell and memory cell gene sets (RNAseq, GSEA) (DLBCL cell lines) | clinical response (B-cell lymphomas) | Combination effect with TAZ (FIG. 5) (GCB lines) | apoptosis, combination with TAZ compared to TAZ single agent (Cells; 100 ng/mL CD40L) | effect on TAZ inhibition of H3K27 trimethylation [4] | PRDM1 expression, co-treatment with TAZ [5]
1 | COc1cc(Nc2ncc(F)c(Nc3ccc4c(n3)NC(=O)C(C)(C)O4)n2)cc(OC)c1OC [Tamatinib] | Synergy | Synergy | Synergy | – | – | – | – | – | – | – | – | – | – | – | – | –
2 | CCN(c1cc(-c2ccc(CN3CCOCC3)cc2)cc(C(=O)NCc2c(C)cc(C)[nH]c2=O)c1C)C1CCOCC1 [tazemetostat] | – | – | – | orally bioavailable | tumor growth inhibition | tumor growth inhibition | increase | slight decrease | significant increase of apoptosis | does not affect | induces a gene set that is heavily enriched for plasma cell and memory cell genes | objective clinical responses | – | – | – | –
3 | B1 | – | – | slight synergy | – | – | – | – | – | – | – | – | – | antagonism | significant decrease of apoptosis | does not affect | up-regulation of PRDM1

Source: US11147819B2, “EZH2 inhibitors for treating cancer” (Epizyme, Inc., priority 2016, dated 2021)
